Counter-ions that a name gives are not always drawn.
Tests used:
[1] = Shelf-life (t90%) forecast, Arrhenius approach, doxorubicin.HCl 2 mg/ml sterile water solution pH 3.0; assay type: physicochemical; settings: for K x 10^3: 2 mg/ml sterile water solution pH 3.0, calculated from Arrhenius equation; for t90%: 2 mg/ml sterile water solution pH 3.0, calculated shelf-life; for Kobs x 10^3: 2 mg/ml sterile water solution pH 3.0, observed
Description: The solution was filtered through a 0.22 µm microporous membrane under nitrogen pressure. 5.0 ml aliquots were stored at: • (a) 55°C for 21 days, • (b) 45°C and 35°C for 28 days, and • (c) 27°C for 90 days. in glass vials of glass type I, 8ml top capacity vial, Teflon-faced chlorobutyl rubber bung, aluminium seal. At predetermined times the vials were analysed for doxorubicin.HCl assay and pH.
The Arrhenius equation for the degradation process was calculated from the Kobs obtained from the different temperatures taken in account for the testing (Table 8). Applying the equation, the rate constants for the pseudo-first order reactions at 4°C, 8°C, 15°C and 27°C were calculated, together with the expected shelf-life (t90%)at these temperatures.

[2] = Long term stability of doxorubicin.HCl 2 mg/ml solution in 0.9% sodium chloride at pH 3.7; settings: batch TF/23256, 0.9% sodium chloride
[3] = Shelf-life (t90%) forecast, Arrhenius approach, doxorubicin.HCl 2 mg/ml pH 3.0 in 0.9% sodium chloride; assay type: physicochemical; settings: 2 mg/ml pH 3.0 solution in 0.9% NaCl; for K x 10^3: calculated from Arrhenius equation; for t90%: calculated shelf-life; for Kobs x 10^3: observed
Description: The solution was filtered through a 0.22 µm microporous membrane under nitrogen pressure. 5.0 ml aliquots were stored at: • (a) 60°C for 4 days, • (b) 55°C for 11 days, • (c) 45°C for 21 days, and • (d) 35°C for 28 days in glass vials of glass type I, 8ml top capacity vial, Teflon-faced chlorobutyl rubber bung, aluminium seal. At predetermined times the vials were analysed for doxorubicin.HCl assay and pH.
The Arrhenius equation for the degradation process was calculated from the Kobs obtained from the different temperatures taken in account for the testing (Table 28). Applying the equation, the rate constants for the pseudo-first order reactions at 4°C, 8°C, 15°C and 27°C were calculated, together with the expected shelf-life (t90%) at these temperatures.

[4] = Shelf-life (t90%) forecast, Arrhenius approach, doxorubicin.HCl 2 mg/ml pH 3.0 in 5% dextrose; assay type: physicochemical; settings: 2 mg/ml pH 3.0 solution in 5% dextrose; for t90%: calculated shelf-life; for Kobs x 10^3: observed
Description: The solution was filtered through a 0.22 µm microporous membrane under nitrogen pressure. 5.0 ml aliquots were stored at: • (a) 60°C for 8 days, • (b) 55°C for 28 days, • (c) 45°C for 28 days, and • (d) 35°C for 28 days in glass vials of glass type I, 8ml top capacity vial, Teflon-faced chlorobutyl rubber bung, aluminium seal.
The Arrhenius equation for the degradation process was calculated from the Kobs obtained from the different temperatures taken in account for the testing (Table 30). Applying the equation, the rate constants for the pseudo-first order reactions at 4°C, 8°C, 15°C and 27°C were calculated, together with the expected shelf-life (t90%) at these temperatures.

[5] = pH-stability profile at 55°C of epirubicin.HCl 2 mg/ml solutions in Water for Injection, 0.9% saline or 5% dextrose: HPLC assay, pH, Kobs; assay type: physicochemical
Description: Each solution was filtered through a 0.22 µm microporous membrane under nitrogen pressure. 5.0 ml of each solution were stored at 55°C in glass vials of glass type I, 8ml top capacity vial, Teflon (Trade Mark)-faced chlorobutyl rubber bung, aluminium seal.
The doxorubicin.HCl assays are the mean of three independent determinations performed by the US Pharmacopoeia (USP high performance liquid chromatography (HPLC) method (USP XXI)).
Solutions of epirubicin were prepared in the same fashion as the corresponding doxorubicin solutions hereinbefore. They were then tested for stability in the same way. The results are presented in Tables 32 to 61 below and illustrated in Figures 4 to 6.

COc1cccc2c1C(=O)c1c(O)c3c(c(O)c1C2=O)C[C@@](O)(C(=O)CO)C[C@@H]3O[C@H]1C[C@H](N)[C@H](O)[C@H](C)O1 [Doxorubicin·HCl, doxorubicin]
K x 10^3 ([1]; 4°C): 0.019 1/days | K x 10^3 ([1]; 8°C): 0.038 1/days | K x 10^3 ([1]; 15°C): 0.130 1/days | K x 10^3 ([1]; 27°C): 0.918 1/days | t90% ([1]; 4°C): 5,652 days | t90% ([1]; 8°C): 2,745 days | t90% ([1]; 15°C): 810 days | t90% ([1]; 27°C): 115 days | Kobs x 10^3 ([1]; 27°C): 0.850 1/days | Kobs x 10^3 ([1]; 35°C): 3.506 1/days | Kobs x 10^3 ([1]; 45°C): 12.790 1/days | Kobs x 10^3 ([1]; 55°C): 49.340 1/days | % stability ([2]; pH 3.7, 8°C, 0 months): 100.0% | Doxorubicin.HCl assay ([2]; pH 3.7, 8°C, 0 months): 2.064 mg/mL | pH ([2]; pH 3.7, 8°C, 0 months): 3.7 | % stability ([2]; pH 3.7, 8°C, 1 month): 99.3% | Doxorubicin.HCl assay ([2]; pH 3.7, 8°C, 1 month): 2.054 mg/mL | pH ([2]; pH 3.7, 8°C, 1 month): 3.7 | % stability ([2]; pH 3.7, 8°C, 3 months): 100.0% | Doxorubicin.HCl assay ([2]; pH 3.7, 8°C, 3 months): 2.063 mg/mL | pH ([2]; pH 3.7, 8°C, 3 months): 3.6 | % stability ([2]; pH 3.7, 15°C, 0 months): 100.0% | Doxorubicin.HCl assay ([2]; pH 3.7, 15°C, 0 months): 2.064 mg/mL | pH ([2]; pH 3.7, 15°C, 0 months): 3.7 | % stability ([2]; pH 3.7, 15°C, 1 month): 100.5% | Doxorubicin.HCl assay ([2]; pH 3.7, 15°C, 1 month): 2.073 mg/mL | pH ([2]; pH 3.7, 15°C, 1 month): 3.7 | % stability ([2]; pH 3.7, 15°C, 3 months): 98.4% | Doxorubicin.HCl assay ([2]; pH 3.7, 15°C, 3 months): 2.029 mg/mL | pH ([2]; pH 3.7, 15°C, 3 months): 3.6 | % stability ([2]; pH 3.7, 27°C, 0 months): 100.0% | Doxorubicin.HCl assay ([2]; pH 3.7, 27°C, 0 months): 2.064 mg/mL | pH ([2]; pH 3.7, 27°C, 0 months): 3.7 | % stability ([2]; pH 3.7, 27°C, 1 month): 91.5% | Doxorubicin.HCl assay ([2]; pH 3.7, 27°C, 1 month): 1.888 mg/mL | pH ([2]; pH 3.7, 27°C, 1 month): 3.6 | % stability ([2]; pH 3.7, 27°C, 3 months): 74.9% | pH ([2]; pH 3.7, 27°C, 3 months): 3.3 | K x 10^3 ([3]; 4°C): 0.017 1/days | K x 10^3 ([3]; 8°C): 0.037 1/days | K x 10^3 ([3]; 15°C): 0.137 1/days | K x 10^3 ([3]; 27°C): 1.112 1/days | t90% ([3]; 4°C): 6,166 days | t90% ([3]; 8°C): 2,838 days | t90% ([3]; 15°C): 768 days | t90% ([3]; 27°C): 94 days | Kobs x 10^3 ([3]; 35°C): 3.89 1/days | Kobs x 10^3 ([3]; 45°C): 21.61 1/days | Kobs x 10^3 ([3]; 55°C): 75.90 1/days | Kobs x 10^3 ([3]; 60°C): 164.9 1/days | t90% ([4]; 4°C): 3,218 days | t90% ([4]; 8°C): 1,628 days | t90% ([4]; 15°C): 516 days | t90% ([4]; 27°C): 82 days | Kobs x 10^3 ([4]; 35°C): 4.190 1/days | Kobs x 10^3 ([4]; 45°C): 14.55 1/days | Kobs x 10^3 ([4]; 55°C): 58.11 1/days | Kobs x 10^3 ([4]; 60°C): 102.6 1/days

COc1cccc2c1C(=O)c1c(O)c3c(c(O)c1C2=O)C[C@@](O)(C(=O)CO)C[C@@H]3O[C@H]1C[C@H](N)[C@@H](O)[C@H](C)O1 [epirubicin.HCl, 4'-epi-doxorubicin]
Kobs x 10^3 ([5]; 2 mg/ml in 0.9% Sodium Chloride Injection, Acetate (I = 0.05) pH 4.0, 55°C): 124.8 1/days | Kobs x 10^3 ([5]; 2 mg/ml in 0.9% Sodium Chloride Injection, Acetate (I= 0.05) pH 5.0, 55°C): 318.1 1/days | Kobs x 10^3 ([5]; 2 mg/ml in 0.9% Sodium Chloride Injection, Formate (I = 0.05) pH 3.5, 55°C): 124.5 1/days | Kobs x 10^3 ([5]; 2 mg/ml in 0.9% Sodium Chloride Injection, Glycine-HCl (I = 0.05) pH 2.0, 55°C): 168.9 1/days | Kobs x 10^3 ([5]; 2 mg/ml in 0.9% Sodium Chloride Injection, Glycine-HCl (I = 0.05) pH 2.5, 55°C): 97.3 1/days | Kobs x 10^3 ([5]; 2 mg/ml in 0.9% Sodium Chloride Injection, Glycine-HCl (I = 0.05) pH 3.0, 55°C): 84.8 1/days | Kobs x 10^3 ([5]; 2 mg/ml in 0.9% Sodium Chloride Injection, HCl-KCl (I = 0.05) pH 1.5, 55°C): 343.2 1/days | Kobs x 10^3 ([5]; 2 mg/ml in 5% Dextrose solution, Acetate (I = 0.05) pH 4.0, 55°C): 150.6 1/days | Kobs x 10^3 ([5]; 2 mg/ml in 5% Dextrose solution, Acetate (I = 0.05) pH 5.0, 55°C): 225.7 1/days | Kobs x 10^3 ([5]; 2 mg/ml in 5% Dextrose solution, Formate (I = 0.05) pH 3.5, 55°C): 89.1 1/days | Kobs x 10^3 ([5]; 2 mg/ml in 5% Dextrose solution, Glycine-HCl (I = 0.05) pH 2.0, 55°C): 106.9 1/days | Kobs x 10^3 ([5]; 2 mg/ml in 5% Dextrose solution, Glycine-HCl (I = 0.05) pH 2.5, 55°C): 81.1 1/days | Kobs x 10^3 ([5]; 2 mg/ml in 5% Dextrose solution, Glycine-HCl (I = 0.05) pH 3.0, 55°C): 70.9 1/days | Kobs x 10^3 ([5]; 2 mg/ml in 5% Dextrose solution, HCl-KCl (I = 0.05) pH 1.5, 55°C): 288.1 1/days | Kobs x 10^3 ([5]; 2 mg/ml in Water for Injection, Acetate (I = 0.05) pH 4.0, 55°C): 376.7 1/days | Kobs x 10^3 ([5]; 2 mg/ml in Water for Injection, Acetate (I = 0.05) pH 5.0, 55°C): 430.4 1/days | Kobs x 10^3 ([5]; 2 mg/ml in Water for Injection, Fermate (I = 0.05) pH 3.5, 55°C): 125.4 1/days | Kobs x 10^3 ([5]; 2 mg/ml in Water for Injection, Glycine-HCl (I = 0.05) pH 2.0, 55°C): 79.0 1/days | Kobs x 10^3 ([5]; 2 mg/ml in Water for Injection, Glycine-HCl (I = 0.05) pH 2.5, 55°C): 55.1 1/days | Kobs x 10^3 ([5]; 2 mg/ml in Water for Injection, Glycine-HCl (I = 0.05) pH 3.0, 55°C): 66.8 1/days
